Each compound was assayed on A II receptor (assay: Angiotensin II ligand-receptor binding assay (rabbit aortae membrane preparation / bovine adrenal cortex preparation)). Settings: "at least IC50 <50 μM"; not stated which of the two binding assays (rabbit aortae, 125I-Sar1Ile8-A II; bovine adrenal cortex, 3H-A II); read-out: IC50 (50% displacement of specifically bound radiolabelled angiotensin II ligand).
From the text: Angiotensin II (A II) is a powerful arterial vasoconstrictor, and it exerts its action by interacting with specific receptors present on cell membranes. The compounds described in the present invention act as competitive antagonists of A II at the receptors. In order to identify A II antagonists and determine their efficacy in vitro, the following two ligand-receptor binding assays were established.
Receptor binding assay using rabbit aortae membrane preparation
Three frozen rabbit aortae (obtained from Pel-Freeze Biologicals) were suspended in 5 mM Tris-0.25M Sucrose, pH 7.4 buffer (50 ml) homogenized, and then centifuged. The mixture was filtered through a cheesecloth and the supernatant was centrifuged for 30 minutes at 20,000 rpm at 4° C. The pellet thus obtained was resuspended in 30 ml of 50 mM Tris-5 mM MgCl2 buffer containing 0.2% Bovine Serum Albumin and 0.2 mg/ml Bacitration and the suspension was used for 100 assay tubes. Samples tested for screening were done in duplicate. To the membrane preparation (0.25 ml) there was added ^125 I-Sar^1 Ile^8 -angiotensin II [obtained from New England Nuclear] (10 ul; 20,000 cpm) with or without the test sample and the mixture was incubated at 37° C. for 90 minutes. The mixture was then diluted with ice-cold 50 mM Tris-0.9% NaCl, pH 7.4 (4 ml) and filtered through a glass fiber filter (GF/B Whatman 2.4" diameter). The filter was soaked in scintillation cocktail (10 ml) and counted for radioactivity using Packard 2660 Tricarb liquid scintillation counter. The inhibitory concentration (IC50) of potential A II antagonist which gives 50% displacement of the total specifically bound ^125 I-Sar^1 Ile^8 -angiotensin II was presented as a measure of the efficacy of such compounds as A II antagonists.
Receptor assay using Bovine adrenal cortex preparation
Bovine adrenal cortex was selected as the source of A II receptor. Weighed tissue (0.1 g is needed for 100 assay tubes) was suspended in Tris.HCl (50 mM), pH 7.7 buffer and homogenized. The homogenate was centrifuged at 20,000 rpm for 15 minutes. Supernatant was discarded and pellets resuspended in buffer [Na2 HPO4 (10 mM)-NaCl (120 mM)-disodium EDTA (5 mM) containing phenylmethane sulfonyl fluoride (PMSF)(0.1 mM)]. (For screening of compounds, generally duplicates of tubes are used). To the membrane preparation (0.5 ml) there was added 3H-angiotensin II ([…]) (10 ul) with or without the test sample and the mixture was incubated at 37° C. for 1 hour. The mixture was then diluted with Tris buffer (4 ml) and filtered through a glass fiber filter (GF/B Whatman 2.4" diameter). The filter was soaked in scintillation cocktail (10 ml) and counted for radioactivity using Packard 2660 Tricarb liquid scintillation counter. […]

IC50	SMILES
< 50 µM	CCCCc1nc2sc(C(=O)OC)cc2n1Cc1ccc(-c2ccccc2-c2nnn[nH]2)cc1 [Example 6, 2-butyl-1-[(2'-{1H-tetrazol-5-yl}{1,1'-biphenyl}-4-yl)methyl]-1H-thieno[2,3-d]imidazole-5-carboxylic acid methyl ester]
< 50 µM	CCCCc1nc2cc(C(=O)OC)sc2n1Cc1ccc(-c2ccccc2C(=O)O)cc1 [Example 3, 2-butyl-3-[(2'-carboxy{1,1'-biphenyl}-4-yl)methyl]-3H-thieno[2,3-d]imidazole-5-carboxylic acid methyl ester]
< 50 µM	CCCCc1nc2cscc2n1Cc1ccc(-c2ccccc2C(=O)O)cc1 [Example 1, 4'-[(2-butyl-1H-thieno[3,4-d]imidazol-1-yl)methyl][1,1'-biphenyl]-2-carboxylic acid]
< 50 µM	CCCc1nc2c(c(C)nn2C)n1Cc1ccc(-c2ccccc2-c2nnn[nH]2)cc1 [Example 11, 1,4-Dihydro-1,3-dimethyl-5-propyl-4-[(2'-{1H-tetrazol-5-yl}{1,1'-biphenyl}-4-yl)methyl]imidazo[4,5-c]-pyrazole]

Reference: patent publication US5389660A, “Substituted imidazo-fused 5-membered ring heterocycles as angiotensin II antagonists” (Merck & Co., Inc., priority 1992, dated 1995)
